d = 2'-deoxy (DNA); r = 2'-OH (RNA)
Key:
[1] = system: BCR-ABL; experiment: Real-time PCR of BCR-ABL expression in CML cell lines (K562) after treatment; type: cell-based, human
Description: (§1) K562 cells were nucleofected following the manufacturer's instructions using the Cell Line Nucleofector Kit V, program T-16 (Amaxa GmbH, Cologne, Germany) and transfected with either the appropriate si-RNA, a scrambled si-RNA sequence or a non-silencing fluorescently labeled si-RNA (Amaxa GmbH) to monitor transfection efficiency. […] Leukemia.
(§2) RQ-PCR was performed with an ABI PRISM 7700 Sequence Detector which exploits TaqMan probe based chemistry (Applied Biosystems, Foster City, Calif.). The 5′ reporter used was 6-carboxyfluorescein (FAM) and the 3′ quencher was 6-carboxy-tetramethylrhodamine (TAMRA). Primers and probes for CCN3 were designed against GenBank published sequences in association with Primer Express (Applied Biosystems). […] Leukemia. […] Amplifications were performed following an initial 2-minute incubation at 50° C. to allow uracil-N-glycosylase (UNG) to destroy any contaminating […], followed by treatment at 95° C. for 10 minutes to inactivate the UNG enzyme and activate the AmpliTaq Gold DNA polymerase. This was followed by 40 to 45 cycles of denaturing at 95° C. for 15 seconds and annealing/extension at 60° C. for 1 minute. Data were collected and analysed with Sequence Detector v1.6.3 software (Applied Biosystems).

[2] = system: CCN3; experiment: Real-time PCR of CCN3 expression in CML cell lines (K562) after treatment; type: cell-based, human; conditions: for CCN3 expression (in words): CML cell lines; for mean Ct change for CCN3: n=3
Description: as §1, §2

[3] = system: CCN3; experiment: Extracellular (secreted) CCN3 protein levels in K562 after siRNA to BCR-ABL; type: cell-based, human; conditions: K562 cells, n=3
Description: Protein was extracted from cells by suspending in RIPA buffer (1×PBS, 1% Nonidet NP-40, 0.1% SDS) containing a cocktail of protease Inhibitors (Complete Mini Cocktail, Roche Diagnostics Ltd, Lewes, UK) at a concentration of 10^7 cells/mL and lysing for 10 minutes on ice. Samples were sonicated for 10 seconds to ensure complete lysis, centrifuged at 10,000 g at 4° C. for 10 minutes and the supernatant removed for analysis. Total protein content was determined by the […] using the BCA protein assay kit (Pierce, Cramlington, UK). Protein (15 μg) was loaded onto a pre-cast Bis-Tris polyacrylamide gel (10%) using the Novex mini gel system (Invitrogen, Paisley, UK) and subsequently transferred to a PVDF membrane. CCN3 expression was detected using an antibody raised against the C terminus of CCN3. Equivalent protein loading was controlled by monitoring actin expression using a pan-actin antibody (Cell Signalling Technology Inc, MA). Immunoblots were visualised by enhanced chemiluminescence (Supersignal, Pierce). Optical densitometry was performed using the […] (Ultra-Violet Products Ltd., Cambridge, UK) and corrected for protein loading. CCN3 protein is glycosylated and binds to heparin. Medium in which ts BCR-ABL FDCP-Mix or control cells had been grown for 24 hours was harvested and enriched for CCN3 protein using heparin sepharose. […]

[4] = system: CCN3; experiment: Western blot of cellular and secreted CCN3 in CD34+ cells from CML patients treated in vitro; type: cell-based, human; conditions: CD34+ cells from three CML patients at diagnosis, imatinib 1 μM, 72 hours in vitro
[5] = system: CCN3; experiment: Real-time PCR of CCN3 in bone marrow of CML patients at diagnosis and following treatment; type: in vivo, human; conditions: three CML patients, diagnosis vs following treatment
Text: Leukemia. 2003; 17:2474-2486).

[6] = system: K562 cells; experiment: Flow cytometric cell cycle analysis (sub-G0) of K562 cells treated with exogenous recombinant CCN3; type: cell-based, human; conditions: 100 ng/ml CCN3, 48 hours
Description: K562 cells (1×10^6 cells/well) were treated with recombinant CCN3 (100 ng/ml, Peprotech EC, London, UK) in vitro for 48 hours. Cells were then fixed in 70% ethanol for flow cytometric analysis of cell cycle status as before.

[7] = K562 cells, siRNA 0.5 μg/10^8 cells, 24 hours

Row | Molecule | BCR-ABL expression (in words) ([1]; CML cell lines) | fold decrease in BCR-ABL [1, 7] [fold] | mean Ct change for BCR-ABL ([1]; K562 cells, siRNA to BCR-ABL, n=3) | CCN3 expression (in words) [2] | fold increase in CCN3 [2, 7] [fold] | mean Ct change for CCN3 ([2]; K562 cells, siRNA to BCR-ABL) | decrease in secreted levels of CCN3 protein [3] [%] | cellular and secreted CCN3 expression (in words) [4] | CCN3 expression following treatment (in words) [5] | mean Ct change for CCN3 ([2]; K562 cells, 1 μM imatinib, 96 hours) | sub-G0 peak [6] [%]
1 | si-RNA directed against BCR-ABL: 21-base si-RNA directed against the fusion sequence of BCR-ABL, SEQ ID NO 9 sense, SEQ ID NO 10 antisense (sense GCAGAGUUCAAAAGCCCUUTT; antisense AAGGGCUUUUGAACUCUGCTT; sugars from the 5' end r19 d2, backbone not given here) | significantly reduced BCR-ABL | 3.7 | 1.9±0.2 | increased CCN3 expression | 6.1 | 2.6±0.5 | 33±5 | – | – | – | –
2 | Cc1ccc(NC(=O)c2ccc(CN3CCN(C)CC3)cc2)cc1Nc1nccc(-c2cccnc2)n1 [imatinib] | – | – | – | increased CCN3 expression | – | – | – | significant increase in both cellular and secreted CCN3 expression | reciprocal rise in CCN3 | 2.1±0.2 | –
3 | recombinant CCN3: recombinant CCN3 protein from Peprotech EC, London, UK (protein, UniProt P48745 32-357, looked up) CCN family member 3: TQRCPPQCPGRCPATPPTCAPGVRAVLDGCSCCLVCARQRGESCSDLEPCDESSGLYCDRSADPSNQTGICTAVEGDNCVFDGVIYRSGEKFQPSCKFQCTCRDGQIGCVPRCQLDVLLPEPNCPAPRKVEVPGECCEKWICGPDEEDSLGGLTLAAYRPEATLGVEVSDSSVNCIEQTTEWTACSKSCGMGFSTRVTNRNRQCEMLKQTRLCMVRPCEQEPEQPTDKKGKKCLRTKKSLKAIHLQFKNCTSLHTYKPRFCGVCSDGRCCTPHNTKTIQAEFQCSPGQIVKKPVMVIGTCTCHTNCPKNNEAFLQELELKTTRGKM | – | – | – | – | – | – | – | – | – | – | 23.7±6.9

— patent US20100004169A1, “CCN3 peptide” (The Queen's University of Belfast, priority 2006, published 2010)
